PubChem BioAssay (NCI)
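The compound was tested at five concentrations on cells cultured in 96-well plates, with a 48-hour exposure period. Here, GI50 denotes the concentration required for 50% inhibition of growth. At the TGI there is no net growth.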

Assays:
Assay in all cases: inhibition of tumour cell growth, NCI panel, 48 h
[1] = test system: 786-0 renal
[2] = test system: HCT-15 colon
[3] = test system: HS 578T breast
[4] = test system: IGROV1 ovarian
[5] = test system: MOLT-4 leukemia
[6] = test system: NCI-H226 lung
[7] = test system: SK-OV-3 ovarian
[8] = test system: UACC-62 melanoma
[9] = test system: HT29 colon
[10] = test system: NCI-H460 lung
[11] = test system: OVCAR-3 ovarian

Compound	TGI [1] [µM]	TGI [2] [µM]	TGI [3] [µM]	TGI [4] [µM]	TGI [5] [µM]	TGI [6] [µM]	TGI [7] [µM]	TGI [8] [µM]	TGI [9] [µM]	TGI [10] [µM]	TGI [11] [µM]	GI50 [2] [µM]	GI50 [3] [µM]	GI50 [4] [µM]	GI50 [5] [µM]	GI50 [10] [µM]	GI50 [11] [µM]	GI50 [7] [µM]	GI50 [8] [µM]
Cc1ccc(S(=O)(=O)N2CCc3cc(O)c([N+](=O)[O-])cc32)cc1	> 100	> 100	> 100	> 100	> 100	> 100	> 100	> 100	–	–	–	–	–	–	–	–	–	–	–
N#Cc1ccnc(C(=O)N2CCCC2C(=O)O)c1 (stereo not drawn)	> 100	> 100	> 100	> 100	> 100	> 100	–	> 100	> 100	> 100	> 100	–	–	–	–	–	–	–	–
CO[C@H](C)[C@](O)(C(=O)OCC1=CCN2CC[C@@H](O)[C@H]12)C(C)C	> 100	> 100	> 100	> 100	> 100	> 100	> 100	> 100	> 100	> 100	> 100	–	–	–	–	–	–	–	–
Oc1ccc(C[C@@H]2CN[C@H](Cc3ccc(O)c(Br)c3)CN2)cc1	> 100	> 100	> 100	> 100	> 100	> 100	> 100	> 100	> 100	–	> 100	–	–	–	–	–	–	–	–
CCOP(=O)(COCCn1nc(Br)c(=O)[nH]c1=O)OCC	–	> 100	> 100	> 100	> 100	> 100	–	–	–	> 100	> 100	–	–	–	–	–	–	–	–
O=C(O)C12C3C4(C(=O)O)C1C1(C(=O)O)C2C3(C(=O)O)C41 (stereo not drawn)	> 100	> 100	> 100	> 100	> 100	–	–	> 100	> 100	> 100	> 100	–	–	–	–	–	–	–	–
CC12CCC(=O)[C@@]1(C)CCCC2=O (stereo partly drawn)	> 100	> 100	> 100	> 100	> 100	> 100	> 100	> 100	> 100	> 100	–	–	–	–	–	–	–	–	–
COC(=O)c1ccc2cc(O)ccc2c1	> 100	> 100	–	> 100	> 100	> 100	> 100	> 100	> 100	–	> 100	–	–	–	–	–	–	–	–
NC(=O)c1ncn(C2OC(CO)C(O)C2O)c1NC(=S)NC(=O)c1ccccc1 (stereo not drawn)	> 100	–	–	> 100	> 100	> 100	> 100	> 100	> 100	> 100	> 100	–	–	–	–	–	–	–	–
O=C(O)C(CS)N=Cc1nc(-c2ccccc2)oc1O (stereo not drawn)	> 100	> 100	–	> 100	> 100	> 100	> 100	> 100	> 100	> 100	> 100	–	–	–	–	–	–	–	–
CC(=O)Oc1ccc2c(c1)O/C(=C\c1ccc(O)cc1)C2=O	> 100	> 100	> 100	> 100	> 100	> 100	> 100	> 100	–	> 100	> 100	–	–	–	–	–	–	–	–
Nc1cc2nc(-c3ccccc3)cn2cn1	> 100	> 100	–	–	> 100	> 100	> 100	> 100	> 100	> 100	> 100	–	–	–	–	–	–	–	–
Cc1ccc(N2C(=O)/C(=C3\Sc4c(nc(C)n(C)c4=O)N3c3ccccc3)SC2=S)cc1	> 100	> 100	–	> 100	> 100	64.6	> 100	> 100	> 100	44	–	–	–	–	–	–	–	–	–
O=C(O)Cn1c[n+](NC(=O)Cc2ccccc2)cn1	> 10	> 10	> 10	> 10	> 10	–	> 10	> 10	> 10	> 10	> 10	–	–	–	–	–	–	–	–
O=c1[nH]nc(-c2ccc([N+](=O)[O-])cc2)[nH]1	> 100	> 100	> 100	> 100	> 100	> 100	–	> 100	> 100	> 100	> 100	–	–	–	–	–	–	–	–
O=C1CCC(CCc2nc3ccccc3[nH]2)(c2ccccc2)C(=O)N1 (stereo not drawn)	> 100	> 100	> 100	> 100	–	> 100	> 100	> 100	> 100	> 100	> 100	–	–	–	–	–	–	–	–
COc1ccc(CCn2ccc(=O)c(O)c2C)cc1OC	22.3	> 100	0.0907	–	> 100	–	> 100	–	77.4	31.2	–	–	–	–	–	–	–	–	–
CC1=NN(c2cccc(Cl)c2)C2(C1=Cc1ccc(N(C)C)cc1)C(Cl)C(=O)N2c1nc2ccccc2s1 (stereo not drawn)	> 100	> 100	> 100	> 100	> 100	> 100	> 100	–	> 100	> 100	> 100	–	–	–	–	–	–	–	–
CC(=O)OC1COC(N2c3ccccc3[C@@H]3CCc4c([nH]c5ccccc45)[C@@H]32)C(OC(C)=O)C1OC(C)=O (mixture of isomers)	–	> 100	> 100	54	> 100	–	> 100	> 100	> 100	> 100	> 100	–	–	–	–	–	–	–	–
O=C1c2cc3c(cc2-c2c1c1cc(F)c(F)cc1c(=O)n2C[C@H](O)CO)OCO3	–	1.74	> 100	> 100	> 100	–	0.641	0.0678	–	0.141	0.753	0.19	0.939	0.182	0.0317	0.031	0.224	0.0481	0.0153
